From publication PMC7724566, “Prospects for Clinical Development of Stat5 Inhibitor IST5-002: High Transcriptomic Specificity in Prostate Cancer and Low Toxicity In Vivo” (Cancers, 2020)

Key:
Stat5 [1] = assay: Ligand-induced Stat5 dimerization, two cell-based assays (summary); set-up: species or system human; conditions: read-out: IC50, suppression of ligand-induced Stat5 dimerization; both cell-based dimerization assays
Excerpt: Down-regulation of Stat5 phosphorylation by IST5 can theoretically be caused by IST5 blocking Stat5 monomer docking to the activated receptor-Jak2 complex (Figure 1) and/or by IST5 inhibition of Jak2 kinase activity. […] To further investigate whether IST5 is able to disrupt dimerization of Stat5 molecules, we employed two separate cell-based assays. […] Because both phosphorylation and dimerization of Stat5 were inhibited at similar concentrations of IST5, it is difficult to determine whether disruption of Stat5 dimerization by IST5 is caused by suppression of Stat5 phosphorylation or a direct effect of IST5 in hindering Stat5 dimer-formation or both events occurring at the same time in the cell. However, it is known that heteromolecular interactions are easier to disrupt than interactions between two Stat5 monomers implying that the primary mechanism of action of IST5 may be suppression of Stat5 docking to the receptor-kinase complex. It is important to note that bypassing tyrosine kinases responsible for Stat5 phosphorylation by utilizing direct Stat5 inhibitor would be advantageous for therapy development for Stat5-regulated cancers because targeting Stat5 directly is likely to cause less off-target side effects than targeting kinases or cell surface receptors.

Stat5 [2] = assay: Stat5 phosphorylation in K562 cells (immunoblot); assay type: cell-based, human; conditions: 4 days
Experimental: In order to evaluate whether the phosphate group of IST5 is critical for IST5 activity in cell-based assays, we compared the potency of IST5 (Figure 4A) to that of IST5-M (IST5 without the phosphate group) (Figure 4B) in inhibiting phosphorylation of Stat5 in PC and CML cells. CML (K562) cells and PC (CWR22Rv1) cells were cultured for 4 days with increasing concentrations of IST5 and IST5-M (Figure 4C,D). […] Collectively, these finding indicate that IST5 and IST5-M have similar efficacies in inhibiting phosphorylation of Stat5 in both CML and PC cells.
Figure 4 IST5 and the IST5-derivative lacking the phosphate group (IST5-M), both, inhibit Stat5 phosphorylation in CML and prostate cancer cell line with high efficacy. (A), chemical structure of IST5-002 (IST5). (B), chemical structure of IST5-M (IST5 without the phosphate group. (C), IST5 and IST5-M both inhibit Stat5 phosphorylation in CML cells (K562) with high efficacy. K562 cells were treated with IST5 and IST5-M for 4 days at the concentrations indicated. Whole cell lysates (WCL) were immunoblotted with anti-pYStat5 mAb, anti-Stat5 mAb and anti-actin mAb as loading control. (D), IST5 and IST5-M, both, decrease Stat5 phosphorylation in PC cells (CWR22Rv1). CWR22Rv1 cells were treated with increasing concentrations of IST5 and IST5-M for 4 days. Stat5 was immunoprecipitated (IP) followed by immunoblotting (WB) with anti-pYStat5 mAb and anti-Stat5 mAb. Whole cell lysates (WCL) were immunoblotted with anti-actin mAb as loading control.
Cell pellets were solubilized in the lysis buffer (10 mM Tris-HCl (pH 7.6), 5 mM EDTA, 50 mM sodium chloride, 30 mM sodium pyrophosphate, 50 mM sodium fluoride, 1 mM sodium orthovanadate, 1% Triton X-100, 1 mM phenylmethylsulfonyl fluoride, 5 µg/mL aprotinin, 1 µg/mL pepstatin A and 2 µg/mL leupeptin), and protein concentrations of clarified cell lysates were determined by a simplified Bradford method (Bio-Rad, Hercules, CA, USA). The whole cell lysates were immunoprecipitated with polyclonal antibodies (Table S1) followed by incubation with protein A-Sepharose beads (GE Healthcare, Chicago, IL, USA). The cell lysates and immunoprecipitated proteins were separated on 4–12% SDS-PAGE (Life Technologies, Brown Deer, WI, USA) and transferred electrophoretically to polyvinylidene fluoride membrane (Millipore). For immunoblotting, blocking buffer was tris-buffered saline and tween 20 (TBST, 0.15 M NaCl; 0.1% Tween 20; 50 mM Tris, pH 8.0) with 3% bovine serum albumin (BSA). The immunoreaction with the specific antibodies (Table S1) was detected by horseradish peroxidase-conjugated secondary antibodies followed by enhanced chemiluminescence (GE Healthcare).

athymic nude mice = assay: Acute toxicity study, plasma biochemistry; assay type: in vivo; conditions: for ALT / AST / Albumin / Alk.Ptase / BUN / Bile Acid / Chol / Globulin / TBIL: plasma
Experimental: The acute toxicity study of the compound IST5 was carried out in athymic nude mice (8 weeks) (Crl:NU/NCr-Foxn1n) of either sex (n = 8/dose group, 4 of each sex). IST5 compound was administered once (0, 10, 30, and 100 mg/kg) via single intra-peritoneal (i.p.) injection, and the mice in the vehicle (0 mg/kg) group received each a single i.p. injection of 0.3% hydroxypropyl cellulose. Plasma samples were analyzed for liver (AST, […], alkaline phosphatase, total bilirubin, bile acid) and kidney functions (BUN, albumin, globulin and albumin-globulin ratio) (Marshfields Labs, WI, USA).
The following clinical chemistry parameters were measured: Aspartate aminotransferase (AST), alanine aminotransferase (ALT), sorbitol dehydrogenase (SDH), alkaline phosphatase (ALP), γ-glutamyltransferase (GGT), lactate dehydrogenase (LDH), bilirubin (TBIL), protein (TP), glucose (GLU), blood urea nitrogen (BUN), creatinine (CREAT), and electrolytes (Na, K, Cl, Ca, CO2).

O=P(O)(O)OCC1OC(n2cnc3c(NCc4ccccc4)ncnc32)C(O)C1O (stereo not shown) [IST5]
IC50 (Stat5 [1]): 1 to 1.3 µM
inhibition of Stat5 phosphorylation (Stat5 [2]; 2 µM, K562 cells): 75–90%
IC50 (Stat5 [2]; read-out: IC50, inhibition of Stat5 phosphorylation, K562 CML cells): ~1.1 µM
BW (athymic nude mice; single i.p. 10 mg/kg): 22.8 ± 0.79 g
ALT (athymic nude mice; single i.p. 10 mg/kg): 62.1 ± 11.0 U/L
AST (athymic nude mice; single i.p. 10 mg/kg): 284 ± 78.7 U/L
Albumin (athymic nude mice; single i.p. 10 mg/kg): 3.25 ± 0.01 g/dL
Alk.Ptase (athymic nude mice; single i.p. 10 mg/kg): 43.17 ± 3.5 U/L
BUN (athymic nude mice; single i.p. 10 mg/kg): 27.67 ± 1.4
Bile Acid (athymic nude mice; single i.p. 10 mg/kg): 0.88 ± 0.40 µmol/dL
Chol (athymic nude mice; single i.p. 10 mg/kg): 67.80 ± 5.0 mg/dL
Globulin (athymic nude mice; single i.p. 10 mg/kg): 1.4 ± 0.01
TBIL (athymic nude mice; single i.p. 10 mg/kg): 0.51 ± 0.10 mg/dL
BW (athymic nude mice; single i.p. 30 mg/kg): 21.9 ± 089 g
ALT (athymic nude mice; single i.p. 30 mg/kg): 100 ± 23.9 U/L
AST (athymic nude mice; single i.p. 30 mg/kg): 488 ± 168 U/L
Albumin (athymic nude mice; single i.p. 30 mg/kg): 4.16 ± 0.59 g/dL
Alk.Ptase (athymic nude mice; single i.p. 30 mg/kg): 57.0 ± 6.82 U/L
BUN (athymic nude mice; single i.p. 30 mg/kg): 29.6 ± 1.79
Bile Acid (athymic nude mice; single i.p. 30 mg/kg): 3.35 ± 2.87 µmol/dL
Chol (athymic nude mice; single i.p. 30 mg/kg): 182 ± 57.8 mg/dL
Globulin (athymic nude mice; single i.p. 30 mg/kg): 1.4 ± 0.08
TBIL (athymic nude mice; single i.p. 30 mg/kg): 1.16 ± 0.43 mg/dL
BW (athymic nude mice; single i.p. 100 mg/kg): 22.0 ± 0.97 g
HCT (athymic nude mice; single i.p. 100 mg/kg): 0.44 ± 0.01 L/L
ALT (athymic nude mice; single i.p. 100 mg/kg): 73.2 ± 15.4 U/L
AST (athymic nude mice; single i.p. 100 mg/kg): 377 ± 96.7 U/L
Albumin (athymic nude mice; single i.p. 100 mg/kg): 3.32 ± 0.15 g/dL
Alk.Ptase (athymic nude mice; single i.p. 100 mg/kg): 55.8 ± 5.42 U/L
BUN (athymic nude mice; single i.p. 100 mg/kg): 28.6 ± 1.14
Bile Acid (athymic nude mice; single i.p. 100 mg/kg): 2.52 ± 1.28 µmol/dL
Chol (athymic nude mice; single i.p. 100 mg/kg): 89.4 ± 5.91 mg/dL
Globulin (athymic nude mice; single i.p. 100 mg/kg): 1.28 ± 0.10
TBIL (athymic nude mice; single i.p. 100 mg/kg): 0.62 ± 0.09 mg/dL
